Assay results as given in BindingDB's records for doi:10.1021/jm990281p (Parke-Davis Pharmaceutical Research, 2000).

Experiments:
[1] = target: T1, Dimer of Gag-Pol polyprotein [489-587] (Human immunodeficiency virus 1, UniProt P12497); experiment: Protease Inhibition Assay
T1 construct: 489-587
Description: (§1) Sensitivity of HIV-1 protease activity to protease inhibitors was determined by a peptide substrate cleavage assay. Protease products were analyzed on a reverse-phase high-pressure liquid chromatograph.

[2] = target: T2, Gag-Pol polyprotein [489-587] (Human immunodeficiency virus 1, UniProt P04585); experiment: Protease Inhibition Assay
T2 construct: 489-587
Description: as §1

[3] = target: T2, Gag-Pol polyprotein [489-587]

Structure (SMILES)	IC50 ([1]; pH 6.2, 37 °C) [nM]	Ki ([1]; pH 6.2, 37 °C) [nM]	IC50 [2] [nM]	Ki [3] [nM]	Ki [1] [nM]
Cc1cc(SC2C(=O)CC(CCc3ccc(O)cc3)(C(C)C)OC2=O)c(C(C)(C)C)cc1N (centres undefined)	2.7	0.67	2.7	0.67	–
Cc1cc(SC2C(=O)C[C@@](CCc3ccc(O)cc3)(C(C)C)OC2=O)c(C(C)(C)C)cc1OS(C)(=O)=O (some centres undefined)	–	–	2.2	0.03	0.03
Cc1cc(SC2C(=O)CC(CCc3ccccc3)(C(C)C)OC2=O)c(C(C)(C)C)cc1NS(=O)(=O)c1ccc(C(F)(F)F)cc1 (centres undefined) [N-(5-tert-butyl-4-{[4-hydroxy-2-oxo-6-(2-phenylethyl)-6-(propan-2-yl)-5,6-dihydro-2H-pyran-3-yl]sulfanyl}-2-methylphenyl)-4-(trifluoromethyl)benzene-1-sulfonamide]	–	27	–	27	–
Cc1cc(SC2C(=O)C[C@@](CCc3ccccc3)(C(C)C)OC2=O)c(C(C)(C)C)cc1NS(=O)(=O)c1ccc(C#N)cc1 (stereo partly drawn) [N-(5-tert-butyl-4-{[(6S)-4-hydroxy-2-oxo-6-(2-phenylethyl)-6-(propan-2-yl)-5,6-dihydro-2H-pyran-3-yl]sulfanyl}-2-methylphenyl)-4-cyanobenzene-1-sulfonamide]	–	–	9.1	0.2	0.2
Cc1cc(SC2C(=O)C[C@@](CCc3ccccc3)(C(C)C)OC2=O)c(C(C)(C)C)cc1NS(=O)(=O)c1ccc(C(F)(F)F)cn1 (stereo partly drawn) [N-(5-tert-butyl-4-{[(6S)-4-hydroxy-2-oxo-6-(2-phenylethyl)-6-(propan-2-yl)-5,6-dihydro-2H-pyran-3-yl]sulfanyl}-2-methylphenyl)-5-(trifluoromethyl)pyridine-2-sulfonamide]	–	–	–	6.4	0.31
Cc1cc(SC2C(=O)C[C@@](CCc3ccc(O)cc3)(C(C)C)OC2=O)c(C(C)(C)C)cc1NS(=O)(=O)c1ccc(C(F)(F)F)cn1 (stereo partly drawn) [N-(5-tert-butyl-4-{[(6S)-4-hydroxy-6-[2-(4-hydroxyphenyl)ethyl]-2-oxo-6-(propan-2-yl)-5,6-dihydro-2H-pyran-3-yl]sulfanyl}-2-methylphenyl)-5-(trifluoromethyl)pyridine-2-sulfonamide]	–	–	–	0.39	0.39
Cc1cc(SC2C(=O)CC(CCc3ccc(O)cc3)(C(C)C)OC2=O)c(C(C)(C)C)cc1NS(=O)(=O)c1ccc(C#N)cc1 (centres undefined) [N-[5-tert-butyl-4-({4-hydroxy-6-[2-(4-hydroxyphenyl)ethyl]-2-oxo-6-(propan-2-yl)-5,6-dihydro-2H-pyran-3-yl}sulfanyl)-2-methylphenyl]-4-cyanobenzene-1-sulfonamide]	2.2	0.41	2.2	0.41	–
Cc1cc(SC2C(=O)CC(CCc3ccc(O)cc3)(C(C)C)OC2=O)c(C(C)(C)C)cc1NS(=O)(=O)c1ccccc1 (centres undefined) [N-[5-tert-butyl-4-({4-hydroxy-6-[2-(4-hydroxyphenyl)ethyl]-2-oxo-6-(propan-2-yl)-5,6-dihydro-2H-pyran-3-yl}sulfanyl)-2-methylphenyl]benzenesulfonamide]	1.8	0.53	1.8	0.53	–
